Where two headings read alike, the source gives them in different places.
Experiments:
[1] = amide bond, DMF, 25.0 °C
CSK (h) = CSK (h) (Homo sapiens, UniProt P41240); assay: CSK human kinase assay (glass-fiber filter); assay type: biochemical; conditions: test concentration of 10^−6M; read-out: C2 score (inhibition of CSK human)
Description: In the glass-fiber filter technology the activity of the kinase of interest is measured using an appropriate substrate that is incubated with the aforementioned kinase protein in the presence of (^33P) radiolabeled ATP. (^33P) Phosphorylation of the substrate is subsequently measured as radioactivity bound on a glass fiber-filter.
All kinases are pre-diluted to a 10× working concentration prior to addition into the assay. The composition of the dilution buffer for each kinase is detailed below.
In a final reaction volume of 25 μl, CSK (h) (5-10 mU) is incubated with 50 mM Tris pH 7.5, 0.1 mM EGTA, 0.1 mM Na3VO4, 0.1% β-mercaptoethanol, 0.1 mg/ml poly(Glu, Tyr) 4:1, 10 mM MnCl2, 10 mM MgAcetate and [γ-^33P-ATP] (specific activity approx. 500 cpm/pmol, concentration as required). The reaction is initiated by the addition of the MgATP mix. After incubation for 40 minutes at room temperature, the reaction is stopped by the addition of 5 μl of a 3% phosphoric acid solution. 10 μl of the reaction is then spotted onto a Filtermat A and washed three times for 5 minutes in 75 mM phosphoric acid and once in methanol prior to drying and scintillation counting.

cSRC (h) = cSRC (h) (Homo sapiens, UniProt P12931); assay: cSRC human kinase assay (glass-fiber filter); assay type: biochemical; conditions: test concentration of 10^−6M; read-out: C3 score (inhibition of cSRC human)
Sequence of cSRC (h) (P12931 whole entry): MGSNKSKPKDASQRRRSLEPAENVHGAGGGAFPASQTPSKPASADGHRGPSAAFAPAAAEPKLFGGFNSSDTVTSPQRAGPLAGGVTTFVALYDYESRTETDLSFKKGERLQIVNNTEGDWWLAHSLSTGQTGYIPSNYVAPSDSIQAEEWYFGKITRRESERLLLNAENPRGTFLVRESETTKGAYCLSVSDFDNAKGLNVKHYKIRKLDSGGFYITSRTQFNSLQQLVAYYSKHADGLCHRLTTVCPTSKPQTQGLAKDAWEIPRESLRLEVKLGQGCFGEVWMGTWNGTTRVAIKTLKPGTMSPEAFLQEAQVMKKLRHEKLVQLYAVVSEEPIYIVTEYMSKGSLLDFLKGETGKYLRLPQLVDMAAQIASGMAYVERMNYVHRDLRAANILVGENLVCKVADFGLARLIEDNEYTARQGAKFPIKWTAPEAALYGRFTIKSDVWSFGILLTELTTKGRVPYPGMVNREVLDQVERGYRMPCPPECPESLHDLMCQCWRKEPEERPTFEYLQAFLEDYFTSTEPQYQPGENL
Procedure, shortened: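 Radiometric assay: kinase and substrate are incubated with [33P]ATP, with the reaction started by MgATP mix. The reaction is spotted on P30 filtermat, washed in 75 mM phosphoric acid and methanol, and the bound 33P is measured by scintillation counting.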

Fes (h) = Fes (h) (Homo sapiens, UniProt P07332); assay: Fes human kinase assay (glass-fiber filter); assay type: biochemical; conditions: test concentration of 10^−6M; read-out: C4 score (inhibition of Fes human)
Procedure, shortened: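 Human Fes (5–10 mU) was incubated with 0.1 mg/ml poly(Glu,Tyr) 4:1 in 8 mM MOPS pH 7.0, 0.2 mM EDTA, 10 mM Mg acetate and [γ-33P]ATP for 40 min at room temperature. The reaction was stopped with phosphoric acid, and substrate phosphorylation was quantified by filter binding and scintillation counting.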

Flt3 (h) = Flt3 (h) (Homo sapiens, UniProt P36888); assay: Flt3 human kinase assay (glass-fiber filter); assay type: biochemical; conditions: test concentration of 10^−6M; read-out: C6 score (inhibition of Flt3 human)
Procedure, shortened: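 Human Flt3 (5-10 mU) with 50 μM peptide substrate in 8 mM MOPS pH 7.0, 0.2 mM EDTA, 10 mM Mg acetate and [γ-33P]ATP (concentration as required), 40 min at room temperature. Reaction stopped with phosphoric acid; substrate 33P incorporation counted on P30 glass-fiber filter.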

Fms (h) = Fms (h) (Homo sapiens, UniProt P07333); assay: Fms human kinase assay (glass-fiber filter); assay type: biochemical; conditions: test concentration of 10^−6M; read-out: C7 score (inhibition of Fms human)
Sequence of Fms (h) (P07333 20-972): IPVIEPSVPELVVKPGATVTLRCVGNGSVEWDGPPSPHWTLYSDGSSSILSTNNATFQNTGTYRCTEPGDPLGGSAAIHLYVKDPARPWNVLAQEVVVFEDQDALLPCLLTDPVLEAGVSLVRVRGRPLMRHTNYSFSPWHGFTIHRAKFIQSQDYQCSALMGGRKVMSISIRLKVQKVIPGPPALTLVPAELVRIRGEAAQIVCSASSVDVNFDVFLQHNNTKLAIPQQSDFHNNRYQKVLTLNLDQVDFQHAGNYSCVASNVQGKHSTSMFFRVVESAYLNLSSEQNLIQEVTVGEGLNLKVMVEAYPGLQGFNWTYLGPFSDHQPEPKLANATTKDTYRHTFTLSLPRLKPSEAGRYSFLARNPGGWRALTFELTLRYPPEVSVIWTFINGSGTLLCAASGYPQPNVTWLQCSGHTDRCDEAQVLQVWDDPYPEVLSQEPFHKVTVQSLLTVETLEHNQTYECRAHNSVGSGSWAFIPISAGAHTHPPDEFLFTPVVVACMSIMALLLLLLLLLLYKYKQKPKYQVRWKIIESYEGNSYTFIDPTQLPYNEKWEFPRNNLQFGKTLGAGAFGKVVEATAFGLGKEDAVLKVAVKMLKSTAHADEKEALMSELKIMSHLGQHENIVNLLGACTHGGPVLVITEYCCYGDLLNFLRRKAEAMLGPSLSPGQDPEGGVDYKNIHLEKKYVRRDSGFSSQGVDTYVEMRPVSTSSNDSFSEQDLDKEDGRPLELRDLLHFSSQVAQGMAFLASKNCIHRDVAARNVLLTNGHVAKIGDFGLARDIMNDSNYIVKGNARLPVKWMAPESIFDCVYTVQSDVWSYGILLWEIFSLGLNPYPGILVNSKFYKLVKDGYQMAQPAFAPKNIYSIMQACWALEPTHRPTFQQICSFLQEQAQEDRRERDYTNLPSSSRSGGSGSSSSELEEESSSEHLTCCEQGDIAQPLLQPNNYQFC
Procedure, shortened: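 Radiometric filter-binding assay: Fms (5-10 mU) with 250 μM peptide substrate and [γ-33P]ATP in 8 mM MOPS pH 7.0, 10 mM Mg acetate, 40 min at room temperature. Reaction stopped with phosphoric acid; substrate-bound 33P counted on P30 filtermat.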

Lck (h) = Lck (h) (Homo sapiens, UniProt P06239); assay: Lck human kinase assay (glass-fiber filter); assay type: biochemical; conditions: test concentration of 10^−6M; read-out: C9 score (inhibition of Lck human)
Procedure, shortened: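 Kinase activity measured as transfer of (^33P) from radiolabeled MgATP to substrate, captured on P30 glass-fiber filtermat, washed in 75 mM phosphoric acid and methanol, then scintillation counted.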

Yes (h) = Yes (h) (Homo sapiens, UniProt P07947); assay: Yes human kinase assay (glass-fiber filter); assay type: biochemical; conditions: test concentration of 10^−6M; read-out: C11 score (inhibition of Yes human)
Sequence of Yes (h) (P07947 whole entry): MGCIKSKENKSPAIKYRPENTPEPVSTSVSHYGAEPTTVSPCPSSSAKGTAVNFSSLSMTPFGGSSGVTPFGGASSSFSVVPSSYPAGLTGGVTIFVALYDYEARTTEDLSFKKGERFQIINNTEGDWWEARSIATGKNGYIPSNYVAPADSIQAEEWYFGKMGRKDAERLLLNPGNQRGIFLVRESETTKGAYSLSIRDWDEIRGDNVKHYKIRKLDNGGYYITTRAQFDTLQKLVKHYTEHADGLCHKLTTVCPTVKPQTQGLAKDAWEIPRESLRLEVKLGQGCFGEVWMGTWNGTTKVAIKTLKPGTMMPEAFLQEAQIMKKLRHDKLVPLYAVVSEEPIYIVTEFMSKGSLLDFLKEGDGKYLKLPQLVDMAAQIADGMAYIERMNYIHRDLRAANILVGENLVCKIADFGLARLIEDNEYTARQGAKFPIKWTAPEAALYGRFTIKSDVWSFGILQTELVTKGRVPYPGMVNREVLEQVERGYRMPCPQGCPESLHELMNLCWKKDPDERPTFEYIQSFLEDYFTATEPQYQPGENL
Procedure, shortened: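 Yes (h) (5-10 mU) with 0.1 mg/ml poly(Glu, Tyr) 4:1 in 8 mM MOPS pH 7.0, 0.2 mM EDTA, 10 mM MgAcetate and [γ-^33P-ATP], 40 minutes at room temperature. Stopped with phosphoric acid; substrate-bound ^33P counted on glass-fiber filter by scintillation.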

Abl (h) = Abl (h) (Homo sapiens, UniProt P00519); assay: Abl human kinase assay (glass-fiber filter); assay type: biochemical; conditions: test concentration of 10^−6M; read-out: C1 score (inhibition of Abl human)
Sequence of Abl (h) (P00519 whole entry): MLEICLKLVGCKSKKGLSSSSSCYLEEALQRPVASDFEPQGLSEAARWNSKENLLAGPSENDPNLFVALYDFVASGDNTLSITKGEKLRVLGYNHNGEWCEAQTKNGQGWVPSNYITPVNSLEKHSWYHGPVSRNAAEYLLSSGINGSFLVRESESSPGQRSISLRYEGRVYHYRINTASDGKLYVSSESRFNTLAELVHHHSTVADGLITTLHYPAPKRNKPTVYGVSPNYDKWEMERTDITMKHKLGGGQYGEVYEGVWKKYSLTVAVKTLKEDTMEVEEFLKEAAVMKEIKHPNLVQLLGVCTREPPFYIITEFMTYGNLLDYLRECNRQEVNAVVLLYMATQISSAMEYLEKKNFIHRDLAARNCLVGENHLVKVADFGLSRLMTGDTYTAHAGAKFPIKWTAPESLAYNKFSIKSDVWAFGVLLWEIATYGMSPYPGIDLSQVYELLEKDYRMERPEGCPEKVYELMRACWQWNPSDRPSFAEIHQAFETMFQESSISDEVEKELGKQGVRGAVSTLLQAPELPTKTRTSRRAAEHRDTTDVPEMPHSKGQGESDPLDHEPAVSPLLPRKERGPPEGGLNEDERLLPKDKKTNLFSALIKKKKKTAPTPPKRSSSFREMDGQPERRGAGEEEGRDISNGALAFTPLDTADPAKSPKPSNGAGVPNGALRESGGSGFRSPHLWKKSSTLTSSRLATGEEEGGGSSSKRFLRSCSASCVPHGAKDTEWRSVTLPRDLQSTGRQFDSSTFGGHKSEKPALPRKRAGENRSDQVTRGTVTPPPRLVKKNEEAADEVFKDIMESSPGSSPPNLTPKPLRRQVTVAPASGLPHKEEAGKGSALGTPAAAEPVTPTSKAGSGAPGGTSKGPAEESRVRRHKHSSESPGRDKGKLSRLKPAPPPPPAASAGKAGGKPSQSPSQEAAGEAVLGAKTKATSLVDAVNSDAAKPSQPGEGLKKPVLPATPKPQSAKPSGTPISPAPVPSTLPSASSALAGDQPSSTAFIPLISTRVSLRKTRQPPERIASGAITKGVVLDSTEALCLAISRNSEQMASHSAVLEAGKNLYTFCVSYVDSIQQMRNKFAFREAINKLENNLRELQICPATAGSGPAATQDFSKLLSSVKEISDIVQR

EGFR (h) = EGFR (h) (Homo sapiens, UniProt P00533); assay: EGFR human kinase assay (glass-fiber filter); assay type: biochemical; conditions: test concentration of 10^−6M; read-out: C4 score (inhibition of EGFR human)
Sequence of EGFR (h) (P00533 25-1210): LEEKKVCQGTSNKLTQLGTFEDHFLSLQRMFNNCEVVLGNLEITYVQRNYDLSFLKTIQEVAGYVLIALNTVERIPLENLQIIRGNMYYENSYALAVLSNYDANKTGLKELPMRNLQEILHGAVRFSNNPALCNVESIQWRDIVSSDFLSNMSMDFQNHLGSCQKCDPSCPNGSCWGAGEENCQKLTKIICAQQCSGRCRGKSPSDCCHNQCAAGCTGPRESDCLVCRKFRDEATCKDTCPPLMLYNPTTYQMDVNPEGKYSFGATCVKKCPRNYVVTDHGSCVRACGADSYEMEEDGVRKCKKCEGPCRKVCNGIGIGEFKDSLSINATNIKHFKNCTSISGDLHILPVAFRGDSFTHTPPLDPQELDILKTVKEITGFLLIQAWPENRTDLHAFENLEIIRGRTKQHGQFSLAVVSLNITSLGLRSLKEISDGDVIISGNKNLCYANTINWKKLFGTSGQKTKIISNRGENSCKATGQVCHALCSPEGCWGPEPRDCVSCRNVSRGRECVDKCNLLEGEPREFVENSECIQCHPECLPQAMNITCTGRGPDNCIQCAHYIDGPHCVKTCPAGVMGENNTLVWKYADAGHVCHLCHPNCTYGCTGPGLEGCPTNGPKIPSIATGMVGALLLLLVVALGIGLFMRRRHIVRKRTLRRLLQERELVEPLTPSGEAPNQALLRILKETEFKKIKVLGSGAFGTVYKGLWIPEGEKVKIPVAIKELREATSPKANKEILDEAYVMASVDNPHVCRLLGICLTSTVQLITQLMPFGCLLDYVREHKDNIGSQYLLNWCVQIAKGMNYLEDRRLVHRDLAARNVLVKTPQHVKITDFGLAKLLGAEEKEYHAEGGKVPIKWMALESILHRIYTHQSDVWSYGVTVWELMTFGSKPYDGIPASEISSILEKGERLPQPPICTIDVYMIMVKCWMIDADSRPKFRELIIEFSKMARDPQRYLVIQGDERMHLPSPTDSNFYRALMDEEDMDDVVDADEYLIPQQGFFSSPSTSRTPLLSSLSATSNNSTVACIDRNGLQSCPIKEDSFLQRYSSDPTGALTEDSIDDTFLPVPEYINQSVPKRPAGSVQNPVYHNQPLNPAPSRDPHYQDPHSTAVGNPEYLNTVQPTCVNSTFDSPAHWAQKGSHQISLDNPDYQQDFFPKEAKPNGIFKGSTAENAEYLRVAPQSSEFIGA
Procedure, shortened: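 Human EGFR (5-10 mU) phosphorylated 0.1 mg/ml poly(Glu, Tyr) 4:1 in 8 mM MOPS pH 7.0, 0.2 mM EDTA, 10 mM MnCl2, 10 mM MgAcetate with [γ-33P]ATP at unspecified concentration. Incubation lasted 40 minutes at room temperature, was stopped with phosphoric acid, and filter-bound 33P was counted by scintillation.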

Lyn (h) = Lyn (h) (Homo sapiens, UniProt P07948); assay: Lyn human kinase assay (glass-fiber filter); assay type: biochemical; conditions: test concentration of 10^−6M; read-out: C10 score (inhibition of Lyn human)
Sequence of Lyn (h) (P07948 whole entry): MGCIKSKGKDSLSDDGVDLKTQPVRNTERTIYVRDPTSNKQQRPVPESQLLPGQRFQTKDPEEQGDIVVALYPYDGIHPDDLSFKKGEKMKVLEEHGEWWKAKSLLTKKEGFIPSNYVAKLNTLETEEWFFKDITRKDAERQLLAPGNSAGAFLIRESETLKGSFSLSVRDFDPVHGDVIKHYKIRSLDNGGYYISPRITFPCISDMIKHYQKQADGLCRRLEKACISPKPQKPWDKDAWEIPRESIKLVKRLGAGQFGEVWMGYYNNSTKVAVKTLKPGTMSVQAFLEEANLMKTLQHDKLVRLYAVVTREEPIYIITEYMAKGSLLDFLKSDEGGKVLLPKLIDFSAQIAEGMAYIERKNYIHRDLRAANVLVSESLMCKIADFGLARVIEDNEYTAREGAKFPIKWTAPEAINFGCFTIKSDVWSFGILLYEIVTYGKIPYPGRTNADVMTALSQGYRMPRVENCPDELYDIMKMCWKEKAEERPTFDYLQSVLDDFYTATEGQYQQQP
Procedure, shortened: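 Human Lyn (5-10 mU) phosphorylating poly(Glu,Tyr) 4:1 at 0.1 mg/ml with [γ-33P]ATP (concentration as required) in 50 mM Tris pH 7.5, 10 mM Mg acetate, 40 min at room temperature. Stopped with phosphoric acid; substrate-bound radioactivity counted on glass-fibre filter.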

inhibition at 1 µM (CSK (h)) | inhibition at 1 µM (cSRC (h)) | inhibition at 1 µM (Fes (h)) | inhibition at 1 µM (Flt3 (h)) | inhibition at 1 µM (Fms (h)) | inhibition at 1 µM (Lck (h)) | inhibition at 1 µM (Yes (h)) | melting point | inhibition at 1 µM (Abl (h)) | inhibition at 1 µM (EGFR (h)) | inhibition at 1 µM (Lyn (h)) | SMILES | ring closure, yield of all isomers ([1]; from N#Cc1cnc(Nc2cccc(OCCN)c2)nc1Nc1cccc(C(=O)O)c1, HBTU, 4.0 mM, 17.0 h) | ring closure, yield of all isomers ([1]; from NCCCCCCNC(=O)c1cccc(Nc2cc(Nc3cccc(C(=O)O)c3)ncn2)c1, PyBOP, 3.45 mM, 1.5 h)
10 to 30% | 10 to 30% | 10 to 30% | 30 to 60% | 30 to 60% | 10 to 30% | 10 to 30% | > 260 °C | – | – | – | N#Cc1cnc2nc1Nc1cccc(c1)C(=O)NCCOc1cccc(c1)N2 [Compound 3, 18-oxa-2,4,8,15,25-pentaazatetracyclo[17.3.1.1˜3,7˜.1˜9,13˜]pentacosa-1(23),3,5,7(25),9,11,13(24),19,21-nonaene-6-carbonitrile, 14-oxo-] | 15% | –
10 to 30% | – | – | – | 30 to 60% | – | 10 to 30% | 307 °C | 10 to 30% | 10 to 30% | 10 to 30% | O=C1NCCCCCCNC(=O)c2cccc(c2)Nc2cc(ncn2)Nc2cccc1c2 [Compound 8, 2,4,6,8,15,22-hexaazatetracyclo[22.3.1.1˜3,7˜.1˜9,13˜]triaconta-1(28),3,5,7(30),9,11,13(29),24,26-nonaene-14,23-dione] | – | 33.7%
– | 10 to 30% | – | – | – | 30 to 60% | > 80% | > 260 °C | 10 to 30% | > 80% | > 80% | COc1ccc2cc1OCCCNCCOc1ccc(Cl)cc1Nc1cc(ncn1)N2 [Compound 13, 1H,7H-6,2:8,12-dimetheno-13,20,1,3,5,7,17-benzodioxapentaazacyclodocosine, 23-chloro-14,15,16,17,18,19-hexahydro-11-methoxy-] | – | –
